Measurements: US7098333B2, “Pyrrolo[2,3-d]pyrimidine and their use as purinergic receptor antagonists” (Vernalis Research Limited, priority 2001, dated 2006)

Tests used:
[1] = target: human adenosine A2A receptors (Homo sapiens, UniProt P29274); assay: Binding affinities at hA2A receptors, displacement of [3H]-CGS 21680; conditions: displacement of radioligand [3H]-CGS 21680, in vitro
adenosine A2A receptor = conditions: cited from earlier work
[2] = cited from earlier work

human adenosine A2A receptors, sequence (P29274 whole entry): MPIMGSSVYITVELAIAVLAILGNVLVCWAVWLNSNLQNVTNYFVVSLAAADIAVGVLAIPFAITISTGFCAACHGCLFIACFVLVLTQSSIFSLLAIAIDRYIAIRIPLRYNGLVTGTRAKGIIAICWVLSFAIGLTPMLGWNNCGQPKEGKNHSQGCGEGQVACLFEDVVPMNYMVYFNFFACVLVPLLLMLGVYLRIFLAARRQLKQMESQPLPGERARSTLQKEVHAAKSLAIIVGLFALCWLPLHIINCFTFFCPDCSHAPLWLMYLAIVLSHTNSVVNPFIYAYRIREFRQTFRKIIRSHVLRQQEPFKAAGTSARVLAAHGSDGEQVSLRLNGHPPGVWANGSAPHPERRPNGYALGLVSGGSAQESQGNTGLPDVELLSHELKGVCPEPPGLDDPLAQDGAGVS

`CN(C)c1nc(-c2ccco2)c2cc[nH]c2n1` [Example 1, N,N-dimethyl-4-(2-furyl)-1H-pyrrolo[2,3-d]pyrimidine-2-amine] showed a Ki [1] of 60 nM and a melting point of 196.9 to 197.1 °C.
Work on `Clc1nc(-c2ccco2)c2cc[nH]c2n1` [Example 2, 2-chloro-4-(2-furyl)-1H-pyrrolo[2,3-d]pyrimidine] yielded a melting point of 265.8 to 266.3 °C.
For `CN(C)c1nc(-c2ccco2)c2ccn(Cc3ccccc3)c2n1` [Example 3, 7-benzyl-N,N-dimethyl-4-(2-furyl)-7H-pyrrolo[2,3-d]pyrimidine-2-amine], the melting point was 91.7 to 92.3 °C.
`CN(C)c1nc(-c2ccco2)c2ccn(C(=O)c3ccccc3)c2n1` [Example 5, 7-benzoyl-N,N-dimethyl-4-(2-furyl)-7H-pyrrolo[2,3-d]pyrimidine-2-amine] gave a melting point of 108.3 to 109.1 °C.
For `OC[C@H]1CCCN1c1nc(-c2ccco2)c2cc[nH]c2n1` [Example 6, (2R)-2-(2-hydroxymethylpyrrolidin-1-yl)-4-(2-furyl)-1H-pyrrolo[2,3-d]pyrimidine], the melting point was 174.8 to 175.6 °C.
`COc1ccc(CNc2nc(-c3ccco3)c3cc[nH]c3n2)cc1OC` [Example 7, N-(3,4-dimethoxybenzyl)-4-(2-furyl)-1H-pyrrolo[2,3-d]pyrimidine-2-amine] gave a melting point of 154.8 to 154.9 °C.
In the case of `Nc1nc(-c2ccco2)c2cc[nH]c2n1` [Example 8, 4-(2-furyl)-1H-pyrrolo[2,3-d]pyrimidine-2-amine], the Ki [1] is reported as 272 nM.
In the case of `CN(C)c1nc(-c2ccco2)c2ccn(Cc3ccccc3F)c2n1` [Example 11, N,N-dimethyl-7-(2-fluorobenzyl)-4-(2-furyl)-7H-pyrrolo[2,3-d]pyrimidine-2-amine], the melting point is reported as 115.1 to 115.2 °C.
`Nc1nc(-c2ccco2)c2ccn(Cc3ccccc3F)c2n1` [Example 13, 7-(2-fluorobenzyl)-4-(2-furyl)-7H-pyrrolo[2,3-d]pyrimidine-2-amine] showed a Ki [1] of 16 nM.
For `CCCn1c(=O)c2c(nc(/C=C/c3ccc(OC)c(OC)c3)n2C)n(CCC)c1=O` [KF 17837, (E)-8-(3,4-dimethoxystyryl)-1,3-dipropyl-7-methylxanthine], the “anticataleptic effects of a subthreshold dose of L-DOPA plus benserazide” value (adenosine A2A receptor; combination with L-DOPA plus benserazide) is given as “potentiated”, the “catalepsy induced by haloperidol and reserpine” value (adenosine A2A receptor; in vivo) is given as “reduced” and the “cataleptic responses induced by intracerebroventricular CGS 21680” value (adenosine A2A receptor; oral administration) is given as “significantly ameliorated”.
For `Cn1c(=O)c2[nH]cnc2n(C)c1=O` [Theophylline, 1,3-dimethylxanthine], the “mean objective disability scores” value ([2]; 150 mg/day oral, up to 12 weeks, 15 Parkinsonian patients) is listed as “significant improvements”, the “patients reporting moderate or marked subjective improvement” value ([2]; of 15 Parkinsonian patients, 150 mg/day oral, up to 12 weeks) is listed as 11 and the serum theophylline levels ([2]; slow release oral preparation 150 mg/day, after one week, 15 Parkinsonian patients) is listed as 4.44 mg/L.
